Literature values in patent US7064109B2, “Pharmaceutical composition based on macrolides for topical application in ophthalmology” (priority 2001, dated 2006).

System: all sensitive microorganisms

## CC[C@H]1OC(=O)[C@H](C)[C@@H](O[C@H]2C[C@@](C)(OC)[C@@H](O)[C@H](C)O2)[C@H](C)[C@@H](O[C@@H]2O[C@H](C)C[C@H](N(C)C)[C@H]2O)[C@](C)(O)C[C@@H](C)CN(C)[C@H](C)[C@@H](O)[C@]1(C)O [azithromycin, N-methyl-11-aza-10-deoxo-10-dihydroerythromycin]
Conjunctival level
  minimum level for eliminating microorganisms: 0.25 µg/g
Minimum concentration for therapeutic effectiveness in the eyes, all sensitive microorganisms
  minimum inhibitory concentration: 0.5 µg/g
